According to US20230139826A1 (NONO INC., priority 2020, published 2023):
Residues, ends and D or L forms follow the SMILES beside them.

Assays:
acute ischemic stroke = experiment: ESCAPE-NA1 trial: treatment emergent serious adverse events; format: in vivo, human
Text: The primary outcome was good outcome as defined by a score of 0-2 on the modified Rankin scale (mRS) (range, 0 [no symptoms] to 6 [death]) for the assessment of neurologic functional disability^2 assessed in person or, if an in-person visit was not possible, by telephone, at 90 days after randomization by personnel certified in the scoring of the mRS. Secondary efficacy outcomes were neurological outcome as defined by the NIHSS of 0-2, functional independence in activities of daily living as defined by a Barthel Index score of ≥95, excellent functional outcome as defined by a score of 0-1 on the mRS and mortality rates. Tertiary outcomes included assessments of stroke volumes on 24-hour imaging (MR or CT brain). Prespecified safety outcomes were all serious adverse events and mortality. Imaging interpretation was conducted at a central core laboratory and clinical data were verified by independent monitors. Infarct volumes were measured by summation of manual planimetric demarcation of infarct on axial imaging (636/1099 (57.9%) on CT and 463/1099 (42.1%) on MRI).
The safety population included all patients who received any amount of study drug (n=1101). There were no differences in important safety outcomes. (Table 3).

PDZ2 domain of PSD-95 = PDZ2 domain of PSD-95 (Homo sapiens, UniProt P78352); experiment: Direct ELISA of biotinylated peptides to PSD-95 PDZ2; format: binding; details: biotinylated peptides, triplicate; read-out: EC50, direct ELISA binding to PSD-95 PDZ2 domain
Procedure: ELISA plates were coated with 1 ug/ml PSD95PDZ2 in 50 mM bicarbonate buffer overnight at 4 C. The plate was blocked in 2%BSA in PBST (0.05%) for 2 h at room temperature. It was then incubated with biotinylated ligand (nerinetide, D-tat-L2B9c or D-Tat-L-AA) at the indicated concentrations (FIG. 4A) and incubated overnight at 4 C. After washing with PBS-T, the plate was incubated for 30 min with (1:3000) SA-HRP, washed again, and incubated with TMB solution for 10 min. The reaction was stopped with 100 ul H2504. Absorbance was determined at 450 nm with the synergy H1 reader.

[1] = In-vitro peptide degradation assay in human plasma with rt-PA or TNK
Procedure: To determine nerinetide stability in the presence of rt-PA in plasma, we use an in-vitro peptide content analysis by HPLC. In brief, Nerinetide or D-Tat-L-2B9c were spiked into rat or human plasma at a concentration of 65 ug/ml. rt-PA was added after the baseline time-point was collected, at the specified concentrations. rt-PA administration followed the clinical dosing approach [10% bolus dose followed by 60-mins infusion (90% of the dose)], using a Harvard apparatus pump. Sample collection following IV bolus was performed at 5 min, 15 min, 30 min and 45 min post-dose. At each time point, approximately 100 uL of plasma was collected from each vial using a fresh syringe. Plasma was then collected and stored at -80° C. until analyzed.
Nerinetide or D-Tat-L2B9c was extracted by precipitation with 1M perchloric acid. All analyses were performed on an Agilent 1260 Infinity Quaternary LC System (Agilent Technologies, Santa Clara, Calif., USA) and on a 25 cm [YMAA12S052546WT] C-18 RP-HPLC column (Agilent Technologies, Santa Clara, Calif., USA). The column was equilibrated with 10% acetonitrile with 0.1% TFA at 40° C. The eluent flow was 1.5 ml/min (gradient from 10% to 35% acetonitrile in 0.1% TFA) The UV trace was recorded at 220 nm. Concentrations of nerinetide or D-Tat-L-2B9c were derived from calibration standards obtained by spiking the agent into plasma.

Sequence of PDZ2 domain of PSD-95 (P78352 160-246 limits assumed): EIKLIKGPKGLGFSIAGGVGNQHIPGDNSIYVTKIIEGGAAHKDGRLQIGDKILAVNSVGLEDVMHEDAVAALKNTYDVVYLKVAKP

CC[C@H](C)[C@H](NC(=O)[C@H](CO)NC(=O)[C@H](CO)NC(=O)[C@H](CC(C)C)NC(=O)[C@H](CCCCN)NC(=O)[C@H](CCCN=C(N)N)NC(=O)[C@H](CCCN=C(N)N)NC(=O)[C@H](CCCN=C(N)N)NC(=O)[C@H](CCC(N)=O)NC(=O)[C@H](CCCN=C(N)N)NC(=O)[C@H](CCCN=C(N)N)NC(=O)[C@H](CCCCN)NC(=O)[C@H](CCCCN)NC(=O)[C@H](CCCN=C(N)N)NC(=O)CNC(=O)[C@@H](N)Cc1ccc(O)cc1)C(=O)N[C@@H](CCC(=O)O)C(=O)N[C@@H](CO)C(=O)N[C@@H](CC(=O)O)C(=O)N[C@H](C(=O)O)C(C)C [Nerinetide] (H-YGRKKRRQRRRKLSSIESDV-OH)
Angioedema, patients number (proportion) (acute ischemic stroke; nerinetide n = 547): 1 (0.2%) | Congestive cardiac failure, patients number (proportion) (acute ischemic stroke; nerinetide n = 547): 9 (1.6%) | Deep vein thrombosis/pulmonary embolism, patients number (proportion) (acute ischemic stroke; nerinetide n = 547): 3 (0.5%) | Hives/Urticaria/Pruritis, number of patients (acute ischemic stroke; nerinetide n = 547): 0 | Hypotension, patients number (proportion) (acute ischemic stroke; nerinetide n = 547): 7 (1.3%) | Ischaemic stroke (new onset/recurrent), patients number (proportion) (acute ischemic stroke; nerinetide n = 547): 18 (3.3%) | Pneumonia, patients number (proportion) (acute ischemic stroke; nerinetide n = 547): 25 (4.6%) | Stroke-in-evolution (progression), patients number (proportion) (acute ischemic stroke; nerinetide n = 547): 36 (6.6%) | Symptomatic ICH, patients number (proportion) (acute ischemic stroke; nerinetide n = 547): 19 (3.5%) | Urinary tract infection, patients number (proportion) (acute ischemic stroke; nerinetide n = 547): 8 (1.5%) | Angioedema, RR (95% CI) unadjusted (acute ischemic stroke; nerinetide vs placebo): 1.01 (0.06-16.1) | Any serious adverse Event, RR (95% CI) unadjusted (acute ischemic stroke; nerinetide vs placebo): 0.92 (0.79-1.09) | Congestive cardiac failure, RR (95% CI) unadjusted (acute ischemic stroke; nerinetide vs placebo): 2.28 (0.71-7.36) | Deep vein thrombosis/pulmonary embolism, RR (95% CI) unadjusted (acute ischemic stroke; nerinetide vs placebo): 0.38 (0.1-1.42) | Hypotension, RR (95% CI) unadjusted (acute ischemic stroke; nerinetide vs placebo): 7.09 (0.88-57.4) | Ischaemic stroke (new onset/recurrent), RR (95% CI) unadjusted (acute ischemic stroke; nerinetide vs placebo): 0.91 (0.49-1.70) | Pneumonia, RR (95% CI) unadjusted (acute ischemic stroke; nerinetide vs placebo): 1.49 (0.81-2.73) | Stroke-in-evolution (progression), RR (95% CI) unadjusted (acute ischemic stroke; nerinetide vs placebo): 0.85 (0.55-1.30) | Symptomatic ICH, RR (95% CI) unadjusted (acute ischemic stroke; nerinetide vs placebo): 0.80 (0.44-1.45) | Urinary tract infection, RR (95% CI) unadjusted (acute ischemic stroke; nerinetide vs placebo): 1.15 (0.42-3.17) | rates of adverse events compared with placebo (acute ischemic stroke; patients treated with nerinetide): no significant differences | Any serious adverse Event, patients number (proportion) (acute ischemic stroke; safety population, nerinetide n = 547): 181 (33.1%) | EC50 (PDZ2 domain of PSD-95): 93 nM | elimination in human plasma with tenecteplase (TNK) ([1]; TNK 6.25 ug/ml): rapid elimination | stability alone in human plasma ([1]; absence of alteplase): stable | degradation in human plasma with alteplase ([1]; rt-PA 135 ug/ml): rapid degradation
